Key:
[1] = target: T1, COX-1 (Homo sapiens, UniProt P23219); assay: Assay for the COX-1 inhibitory activity using U-937 (PGE2 inhibition); assay type: cell-based; settings: for inhibition at 1 µM: 1 μM test compound, U-937 human lymphoma cells, PGE2 inhibition vs DMSO, read-out: Cyclooxygenase (COX) Inhibition (%) COX-1 (1 μM); for COX-1 inhibitory activity in comparison with the reference (Valdecoxib): 1 μM, U-937, comparison in words
T1 construct: host or cells: U-937 human lymphoma cells
Experimental: The collected cells were diluted with HBSS (×1, Hank's balanced salt solution) to a concentration of 1×10^6 cells/ml. 1 ml of the dilute cell solution was placed into each well of 12-well plates. 5 μl of 1 μM solution of a test compound in DMSO and 5 μl of DMSO as a control were added to the wells. The wells were incubated in CO2 incubator at 37° C. for 15 minutes. Separately, 10 mM stock solution of arachidonic acid in ethanol was diluted ten times in ethanol to prepare 1 mM solution of arachidonic acid. Arachidonic acid acts as a substrate. 10 μl of the 1 mM solution of arachidonic acid was added to each well and incubated at CO2 incubator at 37° C. for 30 minutes. The cell solution of each well was placed in a centrifuge test tube and centrifuged at 10,000 rpm at 4° C. for 5 minutes. The concentration of PGE2 in the collected cells and the supernatant was quantified by means of a monoclonal kit (Cayman Chemicals). The percentages of PGE2 inhibition in a group of the test compound-treated cells in relation to a group of the DMSO-treated cells were calculated. Based on the calculated values, the COX-1 inhibitory activities were evaluated.
(§1) The percentages of the COX inhibition were calculated according to the following equation: % Inhibition=(concentration of PGE2 in test compound-untreated sample−concentration of PGE2 in test compound-treated sample)/(concentration of PGE2 in test compound-untreated sample)×100

[2] = target: T2, COX-2 (Mus musculus, UniProt Q05769); assay: Assay for the COX-2 inhibitory activity using RAW 264.7 cell line (PGE2, interferon γ/LPS induced); assay type: cell-based; settings: for inhibition at 0.01 µM: RAW264.7, 10 nM test compound, RAW 264.7 cells, interferon γ + LPS, 18 hours, PGE2, read-out: Cyclooxygenase (COX) Inhibition (%) COX-2 (10 nM); for COX-2 inhibitory activity in comparison with the reference (Valdecoxib): 10 nM, RAW 264.7, comparison in words; for selectivity (COX-2 over COX-1): judged from Table 1, in words
T2 construct: host or cells: RAW 264.7 cells, aspirin-pretreated, then induced with interferon gamma and LPS
T2 sequence (Q05769 18-604): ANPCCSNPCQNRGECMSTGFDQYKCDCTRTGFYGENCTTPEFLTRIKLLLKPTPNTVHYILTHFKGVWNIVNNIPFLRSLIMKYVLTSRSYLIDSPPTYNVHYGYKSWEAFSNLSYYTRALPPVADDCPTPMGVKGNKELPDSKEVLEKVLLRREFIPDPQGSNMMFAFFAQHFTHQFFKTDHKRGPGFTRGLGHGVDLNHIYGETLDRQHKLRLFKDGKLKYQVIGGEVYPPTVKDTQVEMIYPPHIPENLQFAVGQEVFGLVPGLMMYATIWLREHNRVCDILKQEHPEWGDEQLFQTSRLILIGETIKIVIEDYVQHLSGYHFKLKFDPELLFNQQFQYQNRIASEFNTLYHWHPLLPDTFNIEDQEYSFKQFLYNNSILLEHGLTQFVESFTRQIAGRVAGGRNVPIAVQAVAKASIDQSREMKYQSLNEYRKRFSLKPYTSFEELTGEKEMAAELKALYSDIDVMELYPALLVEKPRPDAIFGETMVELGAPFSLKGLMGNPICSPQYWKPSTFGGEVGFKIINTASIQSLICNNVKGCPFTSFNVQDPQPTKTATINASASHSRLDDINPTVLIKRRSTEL
Experimental: Each well was treated with 250 μM of aspirin and incubated at 37° C. for 2 hours. […] Then, each well was treated with interferon γ (100 units/ml) and Iipopolysaccharide (LPS, 100 ng/ml) and incubated for 18 hours. The culture media were transferred to another test tubes. The concentration of PGE2 was quantified by means of the EIA kit (Cayman Chemicals).
as §1

[3] = tested on: carrageenan-induced paw edema; assay: Carrageenan-induced paw edema test in rats; assay type: in vivo; settings: for Inhibitory effect (% inhibition): oral administration, foot swelling 3 hours after carrageenan injection vs control; for COX inhibitory effect (paw edema % inhibition) in comparison with Celecoxib: oral, comparison in words
Experimental: 2. Carrageenan-induced Paw Edema Test in Rats
The day before the test date, rats were selected in each group so that the average body weight was as close as possible, and the rats were fasted by feed withdrawal prior to the test. At the test date, the rats were orally administered with the test compounds and a control material. After 1 hour, the volume (V0h) of a predetermined portion of the left hind foot of the rats was measured with a plethysmometer. 100 μl of 1% carrageenan solution was subcutaneously injected to the left hind foot of the rats using a syringe with 1 ml capacity. Three hours after the injection of the carrageenan, the volume (V3h) of the predetermined portion of the foot was again measured. The foot swelling variation […] in a group of test compound-treated rats was compared with that of a group of control material-treated rats. With the supposition of 0% inhibition by the control (control material-treated rats), the inhibition percentage of edema of each test compound was determined.

T1 sequence (P23219 24-599): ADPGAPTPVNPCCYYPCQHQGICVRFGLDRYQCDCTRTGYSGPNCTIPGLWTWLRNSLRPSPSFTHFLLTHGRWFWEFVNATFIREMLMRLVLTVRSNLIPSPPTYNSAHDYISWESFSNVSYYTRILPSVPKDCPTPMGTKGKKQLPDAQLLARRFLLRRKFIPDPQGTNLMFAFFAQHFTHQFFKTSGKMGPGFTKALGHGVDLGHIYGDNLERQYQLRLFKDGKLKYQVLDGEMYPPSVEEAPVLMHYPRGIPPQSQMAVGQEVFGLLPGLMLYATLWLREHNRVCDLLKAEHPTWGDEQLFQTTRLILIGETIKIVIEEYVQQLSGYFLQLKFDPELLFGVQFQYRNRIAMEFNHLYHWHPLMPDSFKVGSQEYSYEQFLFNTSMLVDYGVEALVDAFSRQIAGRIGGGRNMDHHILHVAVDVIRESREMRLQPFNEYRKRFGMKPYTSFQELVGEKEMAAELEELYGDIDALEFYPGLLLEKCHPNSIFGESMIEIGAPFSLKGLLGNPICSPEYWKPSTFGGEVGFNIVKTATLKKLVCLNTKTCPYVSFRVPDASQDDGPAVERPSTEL

Structure (SMILES) | inhibition at 1 µM [1] | inhibition at 0.01 µM [2] | Inhibitory effect (% inhibition) [3] | COX inhibitory effect (paw edema % inhibition) in comparison with Celecoxib [3] | COX-1 inhibitory activity in comparison with the reference (Valdecoxib) [1] | COX-2 inhibitory activity in comparison with the reference (Valdecoxib) [2] | selectivity (COX-2 over COX-1) [2]
COc1ccc(-c2nc(C(F)(F)F)nn2-c2ccc(S(N)(=O)=O)cc2)cc1 [Example 43, 4-[5-(4-methoxyphenyl)-3-trifluoromethyl-[1,2,4]triazol-1-yl]benzene suffonamide] | 34.6% | 32.3% | 39.1 % inhibition | remarkably improved |  |  | 
COc1ccc(-c2nc(C(F)(F)F)nn2-c2ccc(S(C)(=O)=O)cc2)cc1Cl [Example 39, 5-(3-chloro-4-methoxyphenyl)-1-(4-methanesulfonylphenyl)-3-trifluoromethyl-1H-[1,2,4]triazole] | 12.5% | 32.6% |  |  | the same as or lower | remarkably enhanced | excellent selectivities
NS(=O)(=O)c1ccc(-n2nc(C(F)(F)F)nc2-c2ccc(Br)cc2)cc1 [Example 44, 4-[5-(4-bromophenyl)-3-trifluoromethyl-[1,2,4]triazol-1-yl]benzene sulfonamide] | 23.1% | 29.9% | 28.8 % inhibition | remarkably improved | the same as or lower | remarkably enhanced | excellent selectivities
CS(=O)(=O)c1ccc(-n2nc(C(F)(F)F)nc2-c2ccncc2)cc1 [Example 41, 4-[2-(4-methanesulfonylphenyl)-5-trifluoromethyl-2H-[1,2,4]triazol-3-yl]pyridine] | 16.7% | 8.88% |  |  |  |  | 
CS(=O)(=O)c1ccc(-n2nc(C(F)(F)F)nc2-c2cccc(C(F)(F)F)c2)cc1 [Example 31, 5-(3-trifluoromethylphenyl)-1-(4-methanesulfonylphenyl)-3-trifluoromethyl-1H-[1,2,4]triazole] | 16.5% | 5.66% |  |  |  |  | 
CS(=O)(=O)c1ccc(-n2nc(C(F)(F)F)nc2-c2ccc(Br)cc2)cn1 [Example 47, 2-methanesulfonyl-5-[5-(4-bromophenyl)-3-trifluoromethyl-[1,2,4]triazol-1-yl]pyridine] | 21.9% | 4.26% |  |  |  |  | 
CS(=O)(=O)c1ccc(-n2nc(C(F)(F)F)nc2-c2ccc(Cl)cc2)cc1 [Example 26, 5-(4-chlorophenyl)-1-(4-methanesulfonylphenyl)-3-trifluoromethyl-1H-[1,2,4]triazole] | 38.8% | 10.5% |  |  |  |  | 
CS(=O)(=O)c1ccc(-n2nc(C(F)(F)F)nc2-c2cccc(Br)c2)cc1 [Example 29, 5-(3-bromophenyl)-1-(4-methanesulfonylphenyl)-3-trifluoromethyl-1H-[1,2,4]triazole] | 16.7% | 6.23% |  |  |  |  | 
COc1ccc(-c2nc(C(F)(F)F)nn2-c2ccc(S(C)(=O)=O)nn2)cc1 [Example 50, 3-[5-(4-methoxyphenyl)-3-trifluoromethyl-[1.2.4]triazol-1-yl]-6-methanesulfonyl pyridazine] | 10.6% | 4.32% |  |  |  |  | 
Cc1ccc(-c2nc(C(F)(F)F)nn2-c2ccc(S(N)(=O)=O)cc2)cc1 [Example 42, 4-(5-p-tolyl-3-trifluoromethyl-[1,2,4]triazol-1-yl)benzenesulfonamide] | 38% | 12.1% |  |  |  |  | 
CS(=O)(=O)c1ccc(-n2nc(C(F)(F)F)nc2-c2cccc(Cl)c2)cc1 [Example 30, 5-(3-chlorophenyl)-1-(4-methanesulfonylphenyl)-3-trifluoromethyl-1H-[1,2,4]triazole] | 18.6% | 7.32% |  |  |  |  | 
CS(=O)(=O)c1ccc(-n2nc(C(F)(F)F)nc2-c2ccc([N+](=O)[O-])cc2Cl)cc1 [Example 38, 5-(4-nitro-2-chlorophenyl)-1-(4-methanesulfonylphenyl)-3-trifluoromethyl-1H-[1,2,4]triazole] | 19.5% | 5.95% |  |  |  |  | 
Cc1ccc(-c2cc(C(F)(F)F)nn2-c2ccc(S(N)(=O)=O)cc2)cc1 [Celecoxib, reference compound] |  |  | 23.9 % inhibition |  |  |  | 
CC(C)(C)c1ccc(-c2nc(C(F)(F)F)nn2-c2ccc(S(C)(=O)=O)cc2)cc1 [Example 36, 5-(4-t-butylphenyl)-1-(4-methanesulfonylphenyl)-3-trifluoromethyl-1H-[1,2,4]triazole] | 21.6% | 6.23% |  |  |  |  | 
COc1ccc2c(c1)c(CC(=O)O)c(C)n2C(=O)c1ccc(Cl)cc1 [Indomethacine, reference compound] |  |  | 40.1 % inhibition |  |  |  | 
CS(=O)(=O)c1ccc(-n2nc(C(F)(F)F)nc2-c2ccc(Br)cc2)nn1 [Example 49, 3-[5-(4-bromophenyl)-3-trifluoromethyl-[1,2,4]triazol-1-yl]-6-methanesulfonyl pyridazine] | 14.6% | 3.21% |  |  |  |  | 
COc1ccc(-c2nc(C(F)(F)F)nn2-c2ccc(S(C)(=O)=O)nc2)cc1 [Example 48, 2-methanesulfonyl-5-[5-(4-methoxyphenyl)-3-trifluoromethyl-[1,2,4]triazol-1-yl]pyridine] | 28.8% | 5.63% |  |  |  |  | 
CS(=O)(=O)c1ccc(-n2nc(C(F)(F)F)nc2-c2ccccc2)cc1 [Example 25, 1-(4-methanesulfonylphenyl)-5-phenyl-3-trifluoromethyl-1H-[1,2,4]triazole] | 29.2% | 7.62% |  |  |  |  | 
CS(=O)(=O)c1ccc(-n2nc(C(F)(F)F)nc2/C=C/c2ccccc2)cc1 [Example 33, 5-styryl-1-(4-methanesulfonylphenyl)-3-trifluoromethyl-1H-[1,2,4]triazole] | 19.2% | 19.2% |  |  |  |  | 
CS(=O)(=O)c1ccc(-n2nc(C(F)(F)F)nc2-c2ccc3c(c2)OCO3)cc1 [Example 40, 5-benzo[1,3]dioxol-5-yl-1-(4-methanesulfonylphenyl)-3-trifluoromethyl-1H-[1,2,4]triazole] | 18.7% | 33.7% |  |  | the same as or lower | remarkably enhanced | excellent selectivities
CS(=O)(=O)c1ccc(-n2nc(C(F)(F)F)nc2-c2ccc(C#N)cc2)cc1 [Example 37, 5-(4-cyanophenyl)-1-(4-methanesulfonylphenyl)-3-trifluoromethyl-1H-[1,2,4]triazole] | 23.7% | 8.92% |  |  |  |  | 
COc1ccc(-c2nc(C(F)(F)F)nn2-c2ccc(S(C)(=O)=O)cc2)c(OC)c1 [Example 32, 5-(2,4-dimethoxyphenyl)-1-(4-methanesulfonylphenyl)-3-trifluoromethyl-1H-[1,2,4]triazole] | 19.9% | 12.6% |  |  |  |  | 
